Reference: patent publication US9662327B2 (AGIOS PHARMACEUTICALS, INC, priority 2011, dated 2017)

Tests used:
IDH1 R132H = IDH1 R132H (Homo sapiens (Human), UniProt O75874, R132H); experiment: Assays for IDH1 R132H Inhibitors (NADPH/aKG, resazurin detection); format: biochemical; details: IDH1 R132H enzyme, Table 3; read-out: R132H IC50
Outline: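 Substrate mix held 8 uM NADPH plus 2 mM aKG; buffer was 20 mM Tris pH 7.5 with 150 mM NaCl, 10 mM MgCl2, 0.03% BSA. After 50 min room-temperature reaction, NADPH remaining was detected with 30 μM resazurin mix over 5 min.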

HT1080 cells = experiment: Cellular assay for IDH1m inhibitors: inhibition of 2-HG production in HT1080 cells (LC-MS); format: cell-based; details: Homo sapiens, HT-1080, 48 hours
Description: Cells (e.g., HT1080 or U87MG) are grown in T125 flasks in DMEM containing 10% FBS, 1× penicillin/streptomycin and 500 ug/mL G418. They are harvested by trypsin and seeded into 96 well white bottom plates at a density of 5000 cell/well in 100 ul/well in DMEM with 10% FBS. No cells are plates in columns 1 and 12. Cells are incubated overnight at 37 C in 5% CO2. The next day compounds are made up at 2× concentration and 100 ul are added to each cell well. The final concentration of DMSO is 0.2% and the DMSO control wells are plated in row G. The plates are then placed in the incubator for 48 hours. At 48 hours, 100 ul of media is removed from each well and analyzed by LC-MS for 2-HG concentrations. The cell plate is placed back in the incubator for another 24 hours. At 72 hours post compound addition, 10 mL/plate of Promega Cell Titer Glo reagent is thawed and mixed. The cell plate is removed from the incubator and allowed to equilibrate to room temperature. Then 100 ul of reagent is added to each well of media. The cell plate is then placed on an orbital shaker for 10 minutes and then allowed to sit at room temperature for 20 minutes. The plate is then read for luminescence with an integration time of 500 ms.

Sequence of IDH1 R132H (O75874 whole entry R132H): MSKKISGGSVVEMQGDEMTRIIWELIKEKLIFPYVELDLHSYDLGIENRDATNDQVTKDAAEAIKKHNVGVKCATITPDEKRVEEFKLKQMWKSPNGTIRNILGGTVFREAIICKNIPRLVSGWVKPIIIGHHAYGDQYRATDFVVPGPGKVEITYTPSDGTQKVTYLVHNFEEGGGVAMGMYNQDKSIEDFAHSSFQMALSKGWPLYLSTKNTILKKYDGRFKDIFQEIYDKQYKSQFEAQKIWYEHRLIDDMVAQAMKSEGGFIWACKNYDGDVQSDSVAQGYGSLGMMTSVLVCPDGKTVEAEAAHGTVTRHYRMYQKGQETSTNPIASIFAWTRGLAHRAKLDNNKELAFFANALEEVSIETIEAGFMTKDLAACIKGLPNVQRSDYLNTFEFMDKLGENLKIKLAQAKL

CC(C)[C@@H]1CN(c2nc(C3CC3)c3c(c2C#N)CC(C)(C)OC3)CCN1C(=O)CCc1nnco1 [Compound 448, (R)-6-(4-(3-(1,3,4-oxadiazol-2-yl)propanoyl)-3-isopropylpiperazin-1-yl)-8-cyclopropyl-3,3-dimethyl-3,4-dihydro-1H-pyrano[3,4-c]pyridine-5-carbonitrile]
IC50 (IDH1 R132H): 500 to 1000 nM

CC(C)[C@@H]1CN(c2nc(C3CC3)c3c(c2C#N)CC(C)(C)OC3)CCN1C(=O)C[S+](C)[O-] (stereo partly drawn) [Compound 453, 8-Cyclopropyl-6-((3R)-3-isopropyl-4-(2-(methylsulfinyl)acetyl)piperazin-1-yl)-3,3-dimethyl-3,4-dihydro-1H-pyrano[3,4-c]pyridine-5-carbonitrile]
IC50 (IDH1 R132H): 500 to 1000 nM

CCOCCC(=O)N1CCN(c2nc(C3CC3)c3c(c2C#N)CC(C)(C)OC3)C[C@H]1C(C)C [Compound 459, (R)-8-cyclopropyl-6-(4-(3-ethoxypropanoyl)-3-isopropylpiperazin-1-yl)-3,3-dimethyl-3,4-dihydro-1H-pyrano[3,4-c]pyridine-5-carbonitrile]
IC50 (IDH1 R132H): < 500 nM

COCCC(=O)N1CCN(c2nc(C3CC3)c3c(c2C#N)CC(C)(C)OC3)CC1C(F)F (stereo not shown) [Compound 464]
IC50 (IDH1 R132H): 500 to 1000 nM

CC1(C)Cc2c(C#N)c(N3CCN(C(=O)CC4COC4)[C@H](C4CC4)C3)nc(C3CC3)c2CO1 [Compound 466, (R)-8-cyclopropyl-6-(3-cyclopropyl-4-(2-(oxetan-3-yl)acetyl)piperazin-1-yl)-3,3-dimethyl-3,4-dihydro-1H-pyrano[3,4-c]pyridine-5-carbonitrile]
IC50 (IDH1 R132H): 500 to 1000 nM

CCCCNC(=O)C(=O)CCC(=O)N1CCN(c2nc(C3CC3)c3c(c2C#N)CC(C)(C)OC3)C[C@H]1C(C)C [Compound 467, (R)—N-butyl-5-(4-(5-cyano-8-cyclopropyl-3,3-dimethyl-3,4-dihydro-1H-pyrano[3,4-c]pyridin-6-yl)-2-isopropylpiperazin-1-yl)-2,5-dioxopentanamide]
IC50 (IDH1 R132H): 500 to 1000 nM

CCOC(=O)[C@@H]1CN(c2nc(C3CC3)c3c(c2C#N)CC(C)(C)OC3)CCN1C(C)=O [Compound 468, (S)-ethyl 1-acetyl-4-(5-cyano-8-cyclopropyl-3,3-dimethyl-3,4-dihydro-1H-pyrano[3,4-c]pyridin-6-yl)piperazine-2-carboxylate]
IC50 (IDH1 R132H): 500 to 1000 nM

CC1(C)Cc2c(C#N)c(N3CCN(C(=O)CC(F)(F)F)C(CC(F)(F)F)C3)nc(C3CC3)c2CO1 (stereo not shown) [Compound 470, 8-cyclopropyl-3,3-dimethyl-6-(3-(2,2,2-trifluoroethyl)-4-(3,3,3-trifluoropropanoyl)piperazin-1-yl)-3,4-dihydro-1H-pyrano[3,4-c]pyridine-5-carbonitrile]
IC50 (IDH1 R132H): 500 to 1000 nM

CC1(C)Cc2c(C#N)c(N3CCN(C(=O)C4CC4)C(CC(F)(F)F)C3)nc(C3CC3)c2CO1 (stereo not shown) [Compound 471, 6-(4-(cyclopropanecarbonyl)-3-(2,2,2-trifluoroethyl)piperazin-1-yl)-8-cyclopropyl-3,3-dimethyl-3,4-dihydro-1H-pyrano[3,4-c]pyridine-5-carbonitrile]
IC50 (IDH1 R132H): 500 to 1000 nM

COC(=O)OC[C@@H]1C[C@H]1C(=O)N1CCN(c2nc(C3CC3)c3c(c2C#N)CC(C)(C)OC3)C[C@H]1C(C)C [Compound 472, ((1R,2R)-2-((R)-4-(5-cyano-8-cyclopropyl-3,3-dimethyl-3,4-dihydro-1H-pyrano[3,4-c]pyridin-6-yl)-2-isopropylpiperazine-1-carbonyl)cyclopropyl)methyl methyl carbonate]
IC50 (IDH1 R132H): < 500 nM

CC1CN(c2nc(C3CC3)c3c(c2C#N)CC(C)(C)OC3)CC(F)CN1C(=O)C1CC1 (stereo not shown) [Compound 474, 6-(4-(cyclopropanecarbonyl)-6-fluoro-3-methyl-1,4-diazepan-1-yl)-8-cyclopropyl-3,3-dimethyl-3,4-dihydro-1H-pyrano[3,4-c]pyridine-5-carbonitrile]
IC50 (IDH1 R132H): 500 to 1000 nM

CC1CCN(c2nc(C3CC3)c3c(c2C#N)CC(C)(C)OC3)CCN1C(=O)C1CC1 (stereo not shown) [Compound 475, 6-(4-(cyclopropanecarbonyl)-5-methyl-1,4-diazepan-1-yl)-8-cyclopropyl-3,3-dimethyl-3,4-dihydro-1H-pyrano[3,4-c]pyridine-5-carbonitrile]
IC50 (IDH1 R132H): 500 to 1000 nM

COCCC(=O)N1CCN(c2nc(C3CC3)c3c(c2C#N)CCN(C(C)=O)C3)C[C@H]1C1CC1 [Compound 478, (R)-7-acetyl-1-cyclopropyl-3-(3-cyclopropyl-4-(3-methoxypropanoyl)piperazin-1-yl)-5,6,7,8-tetrahydro-2,7-naphthyridine-4-carbonitrile]
IC50 (IDH1 R132H): < 500 nM

CC(=O)N1CCc2c(C#N)c(N3CCN(C(=O)C4CC4)[C@H](C4CC4)C3)nc(C3CC3)c2C1 [Compound 480, (R)-7-acetyl-3-(4-(cyclopropanecarbonyl)-3-cyclopropylpiperazin-1-yl)-1-cyclopropyl-5,6,7,8-tetrahydro-2,7-naphthyridine-4-carbonitrile]
IC50 (IDH1 R132H): 500 to 1000 nM

COCCC(=O)N1CCN(c2nc(C3CC3)c3c(c2C#N)CCN(CCO)C3)C[C@H]1C1CC1 [Compound 484, (R)-1-cyclopropyl-3-(3-cyclopropyl-4-(3-methoxypropanoyl)piperazin-1-yl)-7-(2-hydroxyethyl)-5,6,7,8-tetrahydro-2,7-naphthyridine-4-carbonitrile]
IC50 (IDH1 R132H): 500 to 1000 nM

C=CC(=O)N1CCc2c(C#N)c(N3CCN(C(=O)C4CC4)[C@H](C4CC4)C3)nc(C3CC3)c2C1 [Compound 489, (R)-7-acryloyl-3-(4-(cyclopropanecarbonyl)-3-cyclopropylpiperazin-1-yl)-1-cyclopropyl-5,6,7,8-tetrahydro-2,7-naphthyridine-4-carbonitrile]
IC50 (HT1080 cells): 500 to 1000 nM
IC50 (IDH1 R132H): < 500 nM

C=CC(=O)N1CCc2c(C#N)c(N3CCN(C(=O)CC(F)(F)F)[C@H](C4CC4)C3)nc(C3CC3)c2C1 [Compound 490, (R)-7-acryloyl-1-cyclopropyl-3-(3-cyclopropyl-4-(3,3,3-trifluoropropanoyl)piperazin-1-yl)-5,6,7,8-tetrahydro-2,7-naphthyridine-4-carbonitrile]
IC50 (HT1080 cells): 500 to 1000 nM
IC50 (IDH1 R132H): < 500 nM

C#CC(=O)N1CCc2c(C#N)c(N3CCN(C(=O)C4CC4)[C@H](C4CC4)C3)nc(C3CC3)c2C1 [Compound 491, (R)-3-(4-(cyclopropanecarbonyl)-3-cyclopropylpiperazin-1-yl)-1-cyclopropyl-7-propioloyl-5,6,7,8-tetrahydro-2,7-naphthyridine-4-carbonitrile]
IC50 (HT1080 cells): < 500 nM
IC50 (IDH1 R132H): < 500 nM

C=C(F)C(=O)N1CCc2c(C3CC3)nc(N3CCN(C(=O)CCOC)[C@H](C4CC4)C3)c(C#N)c2C1 [Compound 492]
IC50 (HT1080 cells): 1000 to 10000 nM
IC50 (IDH1 R132H): 500 to 1000 nM

C#CC(=O)N1CCc2c(C#N)c(-c3ccc(C(=O)OC)cc3F)nc(C3CC3)c2C1 [Compound 495]
IC50 (HT1080 cells): < 500 nM
IC50 (IDH1 R132H): 500 to 1000 nM

N#CCC(=O)N1CCc2c(C#N)c(N3CCN(C(=O)C4CC4)[C@H](C4CC4)C3)nc(C3CC3)c2C1 [Compound 497, (R)-7-(2-cyanoacetyl)-3-(4-(cyclopropanecarbonyl)-3-cyclopropylpiperazin-1-yl)-1-cyclopropyl-5,6,7,8-tetrahydro-2,7-naphthyridine-4-carbonitrile]
IC50 (HT1080 cells): 1000 to 10000 nM
IC50 (IDH1 R132H): 500 to 1000 nM

C/C=C/C(=O)N1CCc2c(C#N)c(N3CCN(C(=O)C4CC4)[C@H](C4CC4)C3)nc(C3CC3)c2C1 [Compound 499, (R,E)-7-but-2-enoyl-3-(4-(cyclopropanecarbonyl)-3-cyclopropylpiperazin-1-yl)-1-cyclopropyl-5,6,7,8-tetrahydro-2,7-naphthyridine-4-carbonitrile]
IC50 (IDH1 R132H): 500 to 1000 nM

C#CC(=O)N1CCc2c(C#N)c(N3CCN(C(=O)CCO)[C@H](C4CC4)C3)nc(C3CC3)c2C1 [Compound 500, (R)-1-cyclopropyl-3-(3-cyclopropyl-4-(3-hydroxypropanoyl)piperazin-1-yl)-7-propioloyl-5,6,7,8-tetrahydro-2,7-naphthyridine-4-carbonitrile]
IC50 (HT1080 cells): 500 to 1000 nM
IC50 (IDH1 R132H): 500 to 1000 nM

COCCC(=O)N1CCN(c2nc(C3CC3)c3c(c2C#N)CCN(C(=O)CCO)C3)C[C@H]1C1CC1 [Compound 501, (R)-1-cyclopropyl-3-(3-cyclopropyl-4-(3-methoxypropanoyl)piperazin-1-yl)-′7-(3-hydroxypropanoyl)-5,6,7,8-tetrahydro-2,7-naphthyridine-4-carbonitrile]
IC50 (IDH1 R132H): 500 to 1000 nM

C=C(C)C(=O)N1CCc2c(C#N)c(N3CCN(C(=O)CCOC)[C@H](C4CC4)C3)nc(C3CC3)c2C1 [Compound 502, (R)-1-cyclopropyl-3-(3-cyclopropyl-4-(3-methoxypropanoyl)piperazin-1-yl)-7-methacryloyl-5,6,7,8-tetrahydro-2,7-naphthyridine-4-carbonitrile]
IC50 (HT1080 cells): 500 to 1000 nM
IC50 (IDH1 R132H): 500 to 1000 nM

C=CS(=O)(=O)N1CCc2c(C#N)c(N3CCN(C)CC3)nc(C3CC3)c2C1 [Compound 503]
IC50 (IDH1 R132H): 500 to 1000 nM
